In general, EC50 refers to the midpoint of the concentration-response curve.

Results on 14 compounds are retold here after patent US10800772B2 (Gilead Sciences, Inc., priority 2016, dated 2020).

Each structure is given as a SMILES string. Like-named read-outs stand apart in the source and are kept apart here.

What all share (format): cell-based, HIV-1
One assay concerns HIV-IIIb IN T174I DE. The assay can be described thus: Antiviral assay in MT4 cells, HIV-IIIb IN T174I DE virus (from dose escalation passaging). Conditions: Human immunodeficiency virus 1, IIIB, MT4, 120 h, read-out: T174I DE EC50, MT4 cells, HIV-IIIb IN T174I DE (dose escalation), 5 days, CellTiter-Glo. How it is done:
(§1) Antiviral Assay in MT4 Cells
(§2) For the antiviral assay, 0.4 μL of 189X test concentration of 3-fold serially diluted compound in DMSO was added to 40 μL of cell growth medium (RPMI 1640, 10% FBS, 1% Penicillin-Streptomycin, 1% L-Glutamine, 1% HEPES) in each well of 384-well plate (10 concentrations) in quadruplicate.
(§3) 1 mL Aliquots of MT4 cells were pre-infected for 3 hours at 37° C. with 25 μL of cell growth medium (mock-infected) or a fresh 1:250 dilution of an HIV-IIIb (wildtype, IN T174I BT, or IN T174I DE) concentrated ABI stock (0.004 m.o.i.). IN T174I BT virus was derived from viral breakthrough (BT) assay as described in Mulato, A.; Hansen, D.; Thielen, A.; Porter, D.; Stepan, G.; White, K.; Daeumer, M.; Cihlar, T.; Yant, S. R. AIDS Research and Human Retrovirues, July 2016, ahead of print. doi:10.1089/aid.2016.0071. IN T174I DE virus was derived from serial passaging with dose escalation (DE) of test compound. Infected and uninfected cells were diluted in cell growth media and 35 μL (2000 cells) was added to each well of the assay plates.
(§4) Assay plates were then maintained in a humidified, 5% CO2 incubator at 37° C. After 5 days of incubation, 25 μl of 2× concentrated CellTiter-Glo™ Reagent (catalog # G7573, Promega Biosciences, Inc., Madison, Wis.) was added to each well of the assay plate. Cell lysis was carried out by incubating at room temperature for 10 minutes and then chemiluminescence was read using an Envision plate reader (PerkinElmer). EC50 values were calculated as the compound concentration that caused a 50% […] in luminescence signal, a measure of HIV-1 replication.

A further assay relates to HIV-IIIb IN T174I BT. The assay can be described thus: Antiviral assay in MT4 cells, HIV-IIIb IN T174I BT virus (from viral breakthrough). The note with it: Human immunodeficiency virus 1, IIIB, MT4, 120 h, read-out: T174I BT EC50, MT4 cells, HIV-IIIb IN T174I BT (viral breakthrough), 5 days, CellTiter-Glo. How it is done:
as §1, §2, §3, §4
A general note: Cellular ATP, detected with luciferase, serves as a proxy for viable cell number.

The subject of a further assay is HIV-IIIb (wildtype). The assay can be described thus: Antiviral assay in MT4 cells, HIV-IIIb wildtype. Conditions: read-out: WT EC50. How it is done: as §1, §2, §3, §4
[1] abbreviates: Human immunodeficiency virus 1, IIIB, MT4, 120 h.
Where [2] appears, read: Human immunodeficiency virus 1, 120 h, MT4 cells, HIV-IIIb wildtype, 5 days, CellTiter-Glo.

For `Cc1cc2nc(-c3ccc4c(c3)c(N3CCNC3=O)nn4C)sc2c(-c2ccc(Cl)cc2)c1[C@H](OC(C)(C)C)C(=O)O` [Compound 78, (S)-2-(tert-butoxy)-2-(7-(4-chlorophenyl)-5-methyl-2-(1-methyl-3-(2-oxoimidazolidin-1-yl)-1H-indazol-5-yl)benzo[d]thiazol-6-yl)acetic acid], the values for the EC50 with HIV-IIIb IN T174I DE, with HIV-IIIb IN T174I BT and in the assay with HIV-IIIb (wildtype) (setting [1]) were 3190 nM, 2690 nM and 32 nM, respectively.

For `COC(=O)N1CC(N2CCC(c3nn(C4CC4)c4ccc(-c5nc6cc(C)c([C@H](OC(C)(C)C)C(=O)O)c(-c7ccc(Cl)cc7)c6s5)cc34)CC2)C1` [Compound 46, (S)-2-(tert-butoxy)-2-(7-(4-chlorophenyl)-2-(1-cyclopropyl-3-(1-(1-(methoxycarbonyl)azetidin-3-yl)piperidin-4-yl)-1H-indazol-5-yl)-5-methylbenzo[d]thiazol-6-yl)acetic acid], the values for the EC50 with HIV-IIIb IN T174I DE, with HIV-IIIb IN T174I BT and in the assay with HIV-IIIb (wildtype) (setting [1]) were 716 nM, 352 nM and 17 nM, respectively.

As for `COC(=O)N1CCC(c2nn(C)c3ccc(-c4nc5cc(C)c([C@H](OC(C)(C)C)C(=O)O)c(-c6ccc(Cl)cc6)c5s4)cc23)C1` (stereo partly drawn) [Compound 72, (2S)-2-(tert-butoxy)-2-(7-(4-chlorophenyl)-2-(3-(1-(methoxycarbonyl)pyrrolidin-3-yl)-1-methyl-1H-indazol-5-yl)-5-methylbenzo[d]thiazol-6-yl)acetic acid], the EC50 was found to be 1030 nM in the assay with HIV-IIIb IN T174I DE, 553 nM with HIV-IIIb IN T174I BT and 7 nM in the assay on HIV-IIIb (wildtype) (setting [1]).

Turning to `COC(=O)N1CC(N2CCC(c3nn(C)c4ncc(-c5nc6cc(C)c([C@H](OC(C)(C)C)C(=O)O)c(-c7ccc(Cl)cc7)c6s5)cc34)CC2)C1` [Compound 114, (S)-2-(tert-butoxy)-2-(7-(4-chlorophenyl)-2-(3-(1-(1-(methoxycarbonyl)azetidin-3-yl)piperidin-4-yl)-1-methyl-1H-pyrazolo[3,4-b]pyridin-5-yl)-5-methylbenzo[d]thiazol-6-yl)acetic acid], the EC50 with HIV-IIIb IN T174I DE turned out to be 2200 nM; in the assay on HIV-IIIb IN T174I BT, 1080 nM; in the assay with HIV-IIIb (wildtype) (setting [1]) it was 12 nM.

Consider `Cc1cc2nc(-c3ccc4c(c3)c(C3CCN(CC5CCO5)CC3)nn4C)sc2c(-c2ccc(Cl)cc2)c1[C@H](OC(C)(C)C)C(=O)O` (stereo partly drawn) [Compound 6, (2S)-2-(tert-butoxy)-2-(7-(4-chlorophenyl)-5-methyl-2-(1-methyl-3-(1-(oxetan-2-ylmethyl)piperidin-4-yl)-1H-indazol-5-yl)benzo[d]thiazol-6-yl)acetic Acid], for which the EC50 was 577 nM in the assay on HIV-IIIb IN T174I DE, 283 nM in the assay on HIV-IIIb IN T174I BT and 4 nM in the assay with HIV-IIIb (wildtype) (setting [1]).

`Cc1cc2nc(-c3ccc4c(c3)c(N3CCOCC3)nn4C)sc2c(-c2ccc(Cl)cc2)c1[C@H](OC(C)(C)C)C(=O)O` [Compound 144, (S)-2-(tert-butoxy)-2-(7-(4-chloro-phenyl)-5-methyl-2-(1-methyl-3-morpholino-1H-indazol-5-yl)benzo[d]thiazol-6-yl)acetic acid]: the EC50 is 3270 nM in the assay on HIV-IIIb IN T174I DE, 1810 nM in the assay on HIV-IIIb IN T174I BT and 10 nM with HIV-IIIb (wildtype) (setting [1]).

Consider `Cc1cc2nc(-c3ccc4c(c3)c(N3CC(C)(C)NC3=O)nn4C)sc2c(-c2ccc(Cl)cc2)c1[C@H](OC(C)(C)C)C(=O)O` [Compound 121, (S)-2-(tert-butoxy)-2-(7-(4-chlorophenyl)-2-(3-(4,4-dimethyl-2-oxoimidazolidin-1-yl)-1-methyl-1H-indazol-5-yl)-5-methylbenzo[d]thiazol-6-yl)acetic acid], for which the figures for the EC50 in the assay with HIV-IIIb IN T174I DE, with HIV-IIIb IN T174I BT and with HIV-IIIb (wildtype) (setting [1]) were 2690 nM, 3480 nM and 39 nM, respectively.

Turning to `COCC(C)N1CC(c2nn(C)c3ccc(-c4nc5cc(C)c([C@H](OC(C)(C)C)C(=O)O)c(-c6ccc(Cl)cc6)c5s4)cc23)C1` (stereo partly drawn) [Compound 124, (2S)-2-(tert-butoxy)-2-(7-(4-chlorophenyl)-2-(3-(1-(1-methoxypropan-2-yl)azetidin-3-yl)-1-methyl-1H-indazol-5-yl)-5-methylbenzo[d]thiazol-6-yl)acetic acid], the results for the EC50 with HIV-IIIb IN T174I DE, with HIV-IIIb IN T174I BT and in the assay with HIV-IIIb (wildtype) (setting [1]) were 3440 nM, 1440 nM and 4 nM, respectively.

Regarding `Cc1cc2nc(-c3ccc4c(c3)c(C3CCN(C5CNC5)CC3)nn4C)sc2c(-c2ccc(Cl)cc2)c1[C@H](OC(C)(C)C)C(=O)O` [Compound 29, (S)-2-(2-(3-(1-(azetidin-3-yl)piperidin-4-yl)-1-methyl-1H-indazol-5-yl)-7-(4-chlorophenyl)-5-methylbenzo[d]thiazol-6-yl)-2-(tert-butoxy)acetic acid], the EC50 in the assay on HIV-IIIb IN T174I DE came out at 823 nM; in the assay on HIV-IIIb IN T174I BT it was 646 nM; in the assay with HIV-IIIb (wildtype) (setting [2]), 52 nM.

For the compound `COC(=O)N1CC[C@@H](N2CCC(c3nn(C)c4ccc(-c5nc6cc(C)c([C@H](OC(C)(C)C)C(=O)O)c(-c7ccc(Cl)cc7)c6s5)nc34)CC2)C1` [Compound 208, (S)-2-(tert-butoxy)-2-(7-(4-chloro-phenyl)-2-(3-(1-((R)-1-(methoxy-carbonyl)pyrrolidin-3-yl)piperidin-4-yl)-1-methyl-1H-pyrazolo[4,3-b]pyridin-5-yl)-5-methylbenzo[d]thiazol-6-yl) acetic acid], the EC50 in the assay with HIV-IIIb IN T174I DE is 206 nM; in the assay with HIV-IIIb IN T174I BT, 54 nM; in the assay on HIV-IIIb (wildtype) (setting [1]), 2 nM.

As for `Cc1cc2nc(-c3ccc4c(c3)c(N3CCN5CCOC[C@@H]5C3)nn4C)sc2c(-c2ccc(Cl)cc2)c1[C@H](OC(C)(C)C)C(=O)O` [Compound 4, (S)-2-(tert-butoxy)-2-(7-(4-chlorophenyl)-2-(3-((S)-hexahydropyrazino[2,1-c][1,4]oxazin-8(1H)-yl)-1-methyl-1H-indazol-5-yl)-5-methylbenzo[d]thiazol-6-yl)acetic Acid], the EC50 was found to be 1740 nM in the assay on HIV-IIIb IN T174I DE, 1270 nM in the assay with HIV-IIIb IN T174I BT and 10 nM in the assay on HIV-IIIb (wildtype) (setting [1]).

Regarding `Cc1cc2nc(-c3ccc4c(c3)c(C3CCN(C(=O)OC(C)(C)C)CC3)nn4C)sc2c(-c2ccc(Cl)cc2)c1[C@H](OC(C)(C)C)C(=O)O` [Compound 23, (S)-2-(tert-butoxy)-2-(2-(3-(1-(tert-butoxycarbonyl)piperidin-4-yl)-1-methyl-1H-indazol-5-yl)-7-(4-chlorophenyl)-5-methylbenzo[d]thiazol-6-yl)acetic Acid], the results for the EC50 in the assay on HIV-IIIb IN T174I DE, in the assay with HIV-IIIb IN T174I BT and in the assay with HIV-IIIb (wildtype) (setting [1]) were 356 nM, 987 nM and 99 nM, respectively.

As to `Cc1cc2nc(-c3ccc4c(c3)c(N3CC5CC(C3)N5C)nn4C)sc2c(-c2ccc(Cl)cc2)c1[C@H](OC(C)(C)C)C(=O)O` [Compound 101, (2S)-2-(tert-butoxy)-2-(7-(4-chlorophenyl)-5-methyl-2-(1-methyl-3-(6-methyl-3,6-diazabicyclo[3.1.1]heptan-3-yl)-1H-indazol-5-yl)benzo[d]thiazol-6-yl)acetic Acid], the values for the EC50 with HIV-IIIb IN T174I DE, in the assay on HIV-IIIb IN T174I BT and with HIV-IIIb (wildtype) (setting [2]) were 57000 nM, 57000 nM and 58 nM, respectively.

Turning to `COC(=O)N1CC(N2CCC(c3cn(C)c4ncc(-c5nc6cc(C)c([C@H](OC(C)(C)C)C(=O)O)c(-c7ccc(Cl)cc7)c6s5)nc34)CC2)C1` [Compound 199, (S)-2-(tert-butoxy)-2-(7-(4-chloro-phenyl)-2-(7-(1-(1-(methoxycarbonyl)azetidin-3-yl)piperidin-4-yl)-5-methyl-5H-pyrrolo[2,3-b]pyrazin-2-yl)-5-methylbenzo[d]thiazol-6-yl) acetic acid], the results for the EC50 in the assay on HIV-IIIb IN T174I DE, in the assay on HIV-IIIb IN T174I BT and with HIV-IIIb (wildtype) (setting [1]) were 770 nM, 149 nM and 4 nM, respectively.
